Source: the NIST ThermoML archive (doi:10.1016/j.jct.2011.09.027)
± gives the expanded uncertainty stated by the source.

Settings: Liquid; for viscosity: Concentric cylinders viscometry; for mass density: Vibrating tube method

CCOS(=O)(=O)[O-].CCn1cc[n+](C)c1 [1-ethyl-3-methylimidazolium ethyl sulfate]
Settings	mass density [kg/m3]	viscosity [mPa·s]
278.15 K, 101.33 kPa	–	309.1 ± 9.8
283.12 K, 19658 kPa	1255.37 ± 1.6	–
283.13 K, 29946 kPa	1259.21 ± 1.7	–
283.14 K, 98469 kPa	1282.72 ± 2.5	–
283.15 K, 101.33 kPa	1247.88 ± 1.4	225.2 ± 6.6
283.15 K, 40036 kPa	1262.89 ± 1.8	–
283.15 K, 49963 kPa	1266.44 ± 1.9	–
283.15 K, 59714 kPa	1269.86 ± 2.1	–
283.15 K, 69986 kPa	1273.38 ± 2.2	–
283.15 K, 79625 kPa	1276.61 ± 2.3	–
283.15 K, 89964 kPa	1280 ± 2.4	–
283.15 K, 109866 kPa	1286.29 ± 2.7	–
283.15 K, 120746 kPa	1289.61 ± 2.8	–
283.15 K, 129872 kPa	1292.32 ± 3	–
283.15 K, 139485 kPa	1295.11 ± 3.1	–
283.16 K, 1391 kPa	1248.37 ± 1.4	–
283.18 K, 9875 kPa	1251.65 ± 1.5	–
283.19 K, 5138 kPa	1249.82 ± 1.4	–
293.13 K, 39626 kPa	1256.03 ± 1.8	–
293.14 K, 1092 kPa	1241.38 ± 1.4	–
293.14 K, 3910 kPa	1242.48 ± 1.4	–
293.14 K, 9925 kPa	1244.83 ± 1.5	–
293.14 K, 19948 kPa	1248.68 ± 1.6	–
293.14 K, 29954 kPa	1252.45 ± 1.7	–
293.14 K, 123824 kPa	1284.35 ± 2.8	–
293.14 K, 129866 kPa	1286.19 ± 2.9	–
293.14 K, 140209 kPa	1289.28 ± 3.1	–
293.15 K, 101.33 kPa	1241.01 ± 1.4	123.5 ± 3.1
293.15 K, 49964 kPa	1259.78 ± 1.9	–
293.15 K, 89997 kPa	1273.58 ± 2.4	–
293.15 K, 99862 kPa	1276.81 ± 2.5	–
293.15 K, 109863 kPa	1280.01 ± 2.6	–
293.16 K, 80177 kPa	1270.3 ± 2.3	–
293.17 K, 69997 kPa	1266.83 ± 2.1	–
293.18 K, 60017 kPa	1263.35 ± 2	–
298.13 K, 19821 kPa	1245.34 ± 1.6	–
298.13 K, 29997 kPa	1249.26 ± 1.7	–
298.13 K, 39886 kPa	1252.98 ± 1.8	–
298.15 K, 49994 kPa	1256.71 ± 1.9	–
298.15 K, 58874 kPa	1259.91 ± 2	–
298.15 K, 69996 kPa	1263.83 ± 2.1	–
298.16 K, 101.33 kPa	1237.53 ± 1.4	97.2 ± 2.3
298.16 K, 10471 kPa	1241.67 ± 1.5	–
298.16 K, 79619 kPa	1267.14 ± 2.2	–
298.16 K, 89998 kPa	1270.63 ± 2.4	–
298.16 K, 99253 kPa	1273.66 ± 2.5	–
298.16 K, 109867 kPa	1277.06 ± 2.6	–
298.16 K, 120082 kPa	1280.24 ± 2.8	–
298.16 K, 129865 kPa	1283.2 ± 2.9	–
298.16 K, 139020 kPa	1285.9 ± 3	–
298.17 K, 5192 kPa	1239.56 ± 1.4	–
298.19 K, 981 kPa	1237.87 ± 1.4	–
303.15 K, 101.33 kPa	–	77.1 ± 1.8
313.1 K, 944 kPa	1227.8 ± 1.3	–
313.14 K, 4705 kPa	1229.35 ± 1.4	–
313.14 K, 39636 kPa	1243.24 ± 1.8	–
313.14 K, 49994 kPa	1247.16 ± 1.9	–
313.14 K, 60122 kPa	1250.92 ± 2	–
313.15 K, 101.33 kPa	1227.47 ± 1.3	50.9 ± 1.1
313.15 K, 19818 kPa	1235.48 ± 1.5	–
313.15 K, 30003 kPa	1239.51 ± 1.6	–
313.15 K, 69996 kPa	1254.49 ± 2.1	–
313.15 K, 109873 kPa	1268.13 ± 2.6	–
313.15 K, 120354 kPa	1271.49 ± 2.7	–
313.15 K, 129874 kPa	1274.47 ± 2.8	–
313.16 K, 9378 kPa	1231.27 ± 1.4	–
313.16 K, 79657 kPa	1257.92 ± 2.2	–
313.16 K, 89993 kPa	1261.49 ± 2.3	–
313.16 K, 99450 kPa	1264.69 ± 2.4	–
313.16 K, 138377 kPa	1277.07 ± 2.9	–
323.15 K, 101.33 kPa	–	35.1 ± 0.8
333.12 K, 19852 kPa	1222.8 ± 1.5	–
333.12 K, 79184 kPa	1246.16 ± 2.1	–
333.13 K, 9972 kPa	1218.57 ± 1.4	–
333.13 K, 89997 kPa	1250.05 ± 2.3	–
333.13 K, 97104 kPa	1252.54 ± 2.3	–
333.15 K, 101.33 kPa	–	25.2 ± 0.6
